In PMC4215513, “Effect of the Pleiotropic Drug CNB-001 on Tissue Plasminogen Activator (tPA) Protease Activity in vitro: Support for Combination Therapy to Treat Acute Ischemic Stroke” (Journal of neurology & neurophysiology, 2014) one finds IC50 and inhibition data, which are given here for two compounds.

Assay [1] addresses T1, tissue plasminogen activator (tPA) (Homo sapiens, UniProt P00750).
T1 construct: gene PLAT; Human recombinant tPA (Activase)
The assay can be described thus: chromogenic substrate protease assay with recombinant tPA; […] inhibition at […]; IC50 extrapolated ([…] min […], […] min […]). The class given is biochemical.

The target of assay [2] is T1, tissue plasminogen activator (tPA). The assay can be described thus: chromogenic substrate protease assay with recombinant tPA (positive control inhibitor). The assay is classed as biochemical.

Each structure is given as a SMILES string. pIC50: −log10 of the molar value. Structures can show the parent of a compound that is named as a salt.

T1 sequence (P00750 36-562): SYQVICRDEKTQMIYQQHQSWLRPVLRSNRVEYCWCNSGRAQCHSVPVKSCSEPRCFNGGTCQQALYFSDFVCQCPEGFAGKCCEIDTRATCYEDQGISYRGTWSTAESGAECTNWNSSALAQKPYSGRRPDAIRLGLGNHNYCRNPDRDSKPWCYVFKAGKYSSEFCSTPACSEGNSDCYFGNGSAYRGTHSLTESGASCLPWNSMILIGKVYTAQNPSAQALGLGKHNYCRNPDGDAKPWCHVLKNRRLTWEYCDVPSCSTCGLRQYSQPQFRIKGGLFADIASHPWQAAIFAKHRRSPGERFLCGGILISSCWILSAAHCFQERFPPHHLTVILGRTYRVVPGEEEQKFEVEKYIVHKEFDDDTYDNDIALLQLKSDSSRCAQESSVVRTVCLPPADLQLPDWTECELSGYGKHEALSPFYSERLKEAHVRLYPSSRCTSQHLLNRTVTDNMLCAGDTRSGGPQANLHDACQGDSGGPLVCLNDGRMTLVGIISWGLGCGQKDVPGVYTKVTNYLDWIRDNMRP

Take `COc1cc(/C=C/c2cc(/C=C/c3ccc(O)c(OC)c3)n(-c3ccccc3)n2)ccc1O` [CNB-001]: the pIC50 in assay [1] is about 4.19.
As to `N=C(N)c1ccc(C=C2CCCCC(=Cc3ccc(C(=N)N)cc3)C2=O)cc1` [tPA-STOP, 2,7-Bis-(4-amidinobenzylidene)-cycloheptan-1-one dihydrochloride], the inhibition at 5 µM in assay [2] turned out to be 83.4%.

What is called pIC50 is the IC50 on a negative log10 scale, so that one unit is a factor of ten. A word on the inhibition: it is the change of the read-out against control, counted positive when it falls.
